Measured values from patent US5409911A, “Prostaglandin analog for treating osteoporosis” (Merck & Co., Inc., priority 1992, dated 1995).
Read-outs that look alike come from different tables or passages of the source.

Key:
[1] = tested on: bone resorption; format: in vivo, rat (Sprague-Dawley female); settings: equimolar weekly i.v. doses
Method: Lysylpyridinoline concentration is a measure of the breakdown of bone collagen.
Effect of PGE2 /ABP (IIIa) on bone resorption estimated by urinary excretion of lysypyridinoline in the rat
4 week old Sprague-Dawley female rats were injected intravenously via the tail vein with equimolar weekly doses of ABP (1 mg/kg, n=5), PGE2 /ABP (2.4 mg/kg, n=5), PGE2 (1.4 mg/kg, n=5), or saline (n=4) each. Filtered urine was collected after 12 and 26 days by housing individual rats in metabolic cages and providing them with food and water ad libitum. The overnight collections of urine were centrifuged at 1000×g for 10 minutes to remove any particles and the supernatant fluid was stored at -80° C. until analysis. Lysylpyridinoline (LP) was extracted from duplicate 1 ml aliquots by acid hydrolysis and subsequent low pressure CF-1 chromatography according to the method of Beardsworth et al. (1990). LP was further resolved by high pressure liquid chromatography according to the method of Uebelhart et al. (1990) and quantitated by comparison with an external standard. Urinary creatinine was measured using the picric acid colorimetric assay (Pharmacia Diagnostics Inc., Fairfield, N.J.). Final results were expressed as pmoles LP per μmole creatinine. […]

[2] = tested on: bone loss due to limb immobilization; assay: Effects on bone loss due to limb immobilization in the rat (unilateral sciatic neurectomy, femoral ash weight); format: in vivo, rat (Sprague-Dawley male); settings: s.c. on two consecutive days before neurectomy; femoral ash weight difference, ten days post-neurectomy; ABP 0.5 mg/kg, PGE2/ABP 1.2 mg/kg, PGE2 0.7 mg/kg; n=6
Method: ABP, PGE2 /ABP, and PGE2 effects on bone loss due to limb immobilization in the rat
Male Sprague-Dawley rats weighing 270 grams (10-12 wks) were injected subcutaneously on two consecutive days prior to unilateral sciatic neurectomy induced hindlimb immobilization with the following doses: Vehicle (0.0 mg/kg), ABP (0.5mg/kg), PGE2 /ABP (1.2 mg/kg), PGE2 (0.7 mg/kg). Ten days post-neurectomy femora were removed at necropsy, dissected from the musculature, and placed in crucibles for incineration at 700° C. for twenty-four hours. Following incineration, the femoral ash content was weighed to the nearest 0.1 mg and the femoral ash weight differences between the control and immobilized hindlimb were calculated. Data represent mean ±SEM (n=6).

[3] = cited from earlier work
[4] = long term s.c. administration; cited from earlier work
[5] = tested on: bone formation; settings: systemic injection; cited from earlier work
[6] = cited from earlier work; remark: listed apart in the source
[7] = 1, 3 and 6 mg of PGE2/Kg/day, cited from earlier work
[8] = administered systemically; cited from earlier work
[9] = cited from earlier work; remark: listed apart in the source

Compound | urinary lysylpyridinoline (LP) level versus vehicle ([1]; 12 days) | urinary lysylpyridinoline (LP) level versus vehicle ([1]; 26 days) | prevention of bone loss accompanying limb immobilization [2] | periosteal and corticoendosteal bone mass ([3]; daily administration) | bone activity ([3]; s.c., 60, 120, and 180 days) | tibial diaphyseal bone mass ([3]; s.c., 60, 120, and 180 days) | soft tissue weight [4] | bone formation in vivo [5] | side effects after oral dosing [6] | serum alkaline phosphatase levels ([6]; oral) | hard tissue mass ([7]; secondary spongiosa of proximal tibial metaphysis) | number of trabeculae [7] | half-life [8] | serum phosphate levels ([9]; 1 mg of PGE2, rats) | side effects ([9]; s.c., rats, doses of 3 mg/Kg/day or higher)
NCCCC(O)(P(=O)([O-])[O-])P(=O)(O)O.[Na+].[Na+] [ABP, 4-amino-1-hydroxybutylidene bisphosphonic acid disodium salt] | lower levels of LPs | lower levels of LPs | effective |  |  |  |  |  |  |  |  |  |  |  | 
CCCCC[C@H](O)/C=C/[C@H]1[C@H](O)CC(=O)[C@@H]1C/C=C\CCCC(=O)O [PGE2] |  |  | no statistical difference | increases periosteal and corticoendosteal bone mass and sustains the transient increase in bone mass | elevated bone activity | increased tibial diaphyseal bone mass | soft tissue weight increases in adrenal glands, liver, kidneys, and lungs | stimulated | loose stools, diarrhea, vomiting, infected sclerae | increased serum alkaline phosphatase levels | increase in hard tissue mass | increase in the number of trabeculae | short half-life | significant decreases | diarrhea and flushing of the extremities along with weight loss
